In patent publication US20160115189A1, “PARASITICIDAL COMPOUNDS, METHODS, AND FORMULATIONS” (ELI LILLY AND COMPANY, priority 2013, published 2016):

Columns and labels:
[1] = system: adult brown tick (Rhipicephalus sanguineus); assay: Assay 5: adult brown tick infestations on dogs; type: in vivo, Rhipicephalus sanguineus on beagle dogs; settings: 10 mg/kg topical spot-on
Protocol: (§1) The total number of live parasites present on each dog is determined for each interval, and this number is transformed using the natural logarithm transformation plus one (Ln count+1); addition of one to each count served to adjust for counts that are zero. Geometric mean (GM) group tick and flea counts are obtained via back-transformation of group mean transformed counts and subtracting one. The negative control group is used for comparison to treated groups for the calculation of percent efficacy (% reduction in live parasite counts). GM percent efficacy of treatments is calculated using the following formula: […]
The therapeutic (knockdown) and residual efficacy of the Example 1-4 compounds, when administered via topical spot-on at 10 mg/kg, is evaluated against adult brown tick (Rhipicephalus sanguine us) infestations on dogs. Twenty (20) beagle dogs are allocated to either an untreated, negative control group or one of four treated groups (n=4 dogs per group). Dogs are infested with approximately 50 unfed, adult R. sanguineus ticks on Days −1, 5, 12, 19 and 28. On Day 0, dogs are treated with Example 1-4 compound formulations (each, 50 mg/ml of technical active dissolved in a vehicle solution of propylene carbonate, benzyl alcohol, and isopropyl myristate), applied via topical spot-on in a volume so as to achieve a point dose of 10 mg/kg. Tick counts and classification are conducted on Days 2, 7, 14, 21 and 30. GM percent efficacy of treatments against ticks is calculated using the formula in Assay 3.

[2] = Assay 4: tolerability in dogs; type: in vivo, beagle dogs; settings: topical spot-on 30, 20 and 10 mg/kg
[3] = Assay 3: tolerability in dogs; type: in vivo, beagle dogs; settings: topical spot-on 30 mg/kg
[4] = system: Dermacentor variabilis (American dog tick); assay: Assay 4: adult American dog tick infestations on dogs, descending doses; type: in vivo, Dermacentor variabilis on beagle dogs
Protocol: as §1
(§2) The therapeutic (knockdown) and residual efficacy of the Example 1 compound, administered via topical spot-on at descending point doses of 30, 20 and 10 mg/kg, is evaluated against adult tick (Dermacentor variabilis (American dog tick) and Rhipicephalus sanguineus (Brown dog tick)) infestations on dogs. Twenty-four (24) beagle dogs are allocated to either an untreated, negative control group or one of three treated groups (n=6 dogs per group). Dogs are infested with approximately 50 unfed, adult R. sanguineus ticks on Days −1, 5, 12, 19 and 28; dogs are concurrently infested with D. variabilis ticks on Day 12 and Day 28. On Day 0, dogs are treated with the Example 1 compound (50 mg/ml of technical active dissolved in a vehicle solution of propylene carbonate, benzyl alcohol, and isopropyl myristate), applied via topical spot-on in a volume so as to achieve point doses of 30, 20 and 10 mg/kg. Tick counts and classification are conducted on Days 3, 7, 14, 21 and 30. GM percent efficacy of treatments against both tick species is calculated using the formula in Assay 3.

[5] = system: Rhipicephalus sanguineus (Brown dog tick); assay: Assay 4: adult brown dog tick infestations on dogs, descending doses; type: in vivo, Rhipicephalus sanguineus on beagle dogs
Protocol: as §1, §2

[6] = system: adult brown dog tick (Rhipicephalus sanguineus); assay: Assay 3: adult brown dog tick infestations on dogs; type: in vivo, Rhipicephalus sanguineus on beagle dogs; settings: for % Efficacy (GM) / Geometric Mean Group Live Parasite Counts: topical spot-on 30 mg/kg
Protocol: (§3) The therapeutic (knockdown) and residual efficacy of the Example 1 compound, administered topically at a point dose of 30 mg/kg bodyweight, is evaluated against adult brown dog tick (Rhipicephalus sanguineus) and cat flea (Ctenocephalides felis) infestations on dogs. Based on pre-treatment tick retention rates, eight (8) beagle dogs are allocated to one of two treatment groups (n=4 per group): Untreated control group, and Example 1 compound-treated group. Dogs are infested with approximately 50 unfed, adult ticks one day prior to treatment (approximately 50% male and 50% female ticks). On Day 0, dogs are treated with Example 1 compound (50 mg/ml, dissolved in a vehicle solution of propylene carbonate, benzyl alcohol, and isopropyl myristate), applied via topical spot-on to achieve a point dose of 30 mg/kg. On Day 3 (approximately 72 hours after treatment), ticks are counted and removed from all dogs. To evaluate residual activity, dogs are re-infested with ticks on an approximate weekly basis for at least two weeks and up to 4 weeks, with tick counts (and removal) conducted 48 hours after each infestation. Dogs are infested with approximately 100 unfed, adult fleas at weeks 2 and 3 for both groups, concurrently with tick infestation.
as §1

[7] = system: cat flea (Ctenocephalides felis); assay: Assay 3: cat flea infestations on dogs; type: in vivo, Ctenocephalides felis on beagle dogs; settings: for % Efficacy (GM) / Geometric Mean Group Live Parasite Counts: topical spot-on 30 mg/kg
Protocol: as §3, §1

[8] = 10 mg/kg topical spot-on, Day 14, Dv
[9] = 10 mg/kg topical spot-on, Day 30, Dv
[10] = 20 mg/kg topical spot-on, Day 14, Dv
[11] = 20 mg/kg topical spot-on, Day 30, Dv
[12] = 30 mg/kg topical spot-on, Day 14, Dv
[13] = 30 mg/kg topical spot-on, Day 30, Dv
[14] = 10 mg/kg topical spot-on, Day 3, Rs
[15] = 10 mg/kg topical spot-on, Day 7, Rs
[16] = 10 mg/kg topical spot-on, Day 14, Rs
[17] = 10 mg/kg topical spot-on, Day 21, Rs
[18] = 10 mg/kg topical spot-on, Day 30, Rs
[19] = 20 mg/kg topical spot-on, Day 3, Rs
[20] = 20 mg/kg topical spot-on, Day 7, Rs
[21] = 20 mg/kg topical spot-on, Day 14, Rs
[22] = 20 mg/kg topical spot-on, Day 21, Rs
[23] = 20 mg/kg topical spot-on, Day 30, Rs
[24] = 30 mg/kg topical spot-on, Day 3, Rs
[25] = 30 mg/kg topical spot-on, Day 7, Rs
[26] = 30 mg/kg topical spot-on, Day 14, Rs
[27] = 30 mg/kg topical spot-on, Day 21, Rs
[28] = 30 mg/kg topical spot-on, Day 30, Rs
[29] = topical 30 mg/kg, through week 4

## CC[C@H]1CCC[C@H](NC(=O)c2ccco2)[C@@H](C)C(=O)C2=C[C@@H]3[C@@H](C=C[C@@H]4C[C@@H](O[C@@H]5O[C@@H](C)[C@H](OC)C(OC)[C@H]5OC)C[C@@H]34)[C@@H]2CC(=O)O1 (stereo partly drawn) [Example 1, N-((2R,3aS,5aR,5bS,9S,13S,14R,16aS,16bR)-9-ethyl-14-methyl-7,15-dioxo-2-(((2R,3R,5S,6S)-3,4,5-trimethoxy-6-methyltetrahydro-2H-pyran-2-yl)oxy)-2,3,3a,5a,5 b,6,7,9,10,11,12,13,14,15,16a,16b-hexadecahydro-1H-as-indaceno[3,2-d][1]oxacyclododecin-13-yl)furan-2-carboxamide]
[1]; Day 2, R. sanguineus
  GM percent efficacy: (68.16)
  Geometric Mean Group Live Tick Counts: 10.03
[1]; Day 7, R. sanguineus
  GM percent efficacy: (100)
  Geometric Mean Group Live Tick Counts: 0.00
[1]; Day 14, R. sanguineus
  GM percent efficacy: (97.41)
  Geometric Mean Group Live Tick Counts: 0.57
[1]; Day 21, R. sanguineus
  GM percent efficacy: (95.27)
  Geometric Mean Group Live Tick Counts: 1.59
[1]; Day 30, R. sanguineus
  GM percent efficacy: (67.97)
  Geometric Mean Group Live Tick Counts: 8.40
[2]
  tolerability of treatment: well tolerated
[3]
  tolerability of treatment: well tolerated
[4]; [8]
  % Efficacy (GM): (99.49) %
  Geometric Mean Group Live Tick Counts: 0.12
[4]; [9]
  % Efficacy (GM): (95.30) %
  Geometric Mean Group Live Tick Counts: 1.60
[4]; [10]
  % Efficacy (GM): (97.87) %
  Geometric Mean Group Live Tick Counts: 0.51
[4]; [11]
  % Efficacy (GM): (97.34) %
  Geometric Mean Group Live Tick Counts: 0.91
[4]; [12]
  % Efficacy (GM): (98.06) %
  Geometric Mean Group Live Tick Counts: 0.47
[4]; [13]
  % Efficacy (GM): (97.95) %
  Geometric Mean Group Live Tick Counts: 0.70
[4]; all doses, both Day 14 and Day 30 intervals
  Residual efficacy against D. variabilis ticks: > 95%
[5]; [14]
  % Efficacy (GM): (73.39) %
  Geometric Mean Group Live Tick Counts: 4.92
[5]; [15]
  % Efficacy (GM): (100) %
  Geometric Mean Group Live Tick Counts: 0.00
[5]; [16]
  % Efficacy (GM): (97.59) %
  Geometric Mean Group Live Tick Counts: 0.70
[5]; [17]
  % Efficacy (GM): (96.14) %
  Geometric Mean Group Live Tick Counts: 0.70
[5]; [18]
  % Efficacy (GM): (90.64) %
  Geometric Mean Group Live Tick Counts: 1.18
[5]; [19]
  % Efficacy (GM): (84.80) %
  Geometric Mean Group Live Tick Counts: 2.81
[5]; [20]
  % Efficacy (GM): (100) %
  Geometric Mean Group Live Tick Counts: 0.00
[5]; [21]
  % Efficacy (GM): (99.58) %
  Geometric Mean Group Live Tick Counts: 0.12
[5]; [22]
  % Efficacy (GM): (99.32) %
  Geometric Mean Group Live Tick Counts: 0.12
[5]; [23]
  % Efficacy (GM): (94.12) %
  Geometric Mean Group Live Tick Counts: 0.74
[5]; [24]
  % Efficacy (GM): (79.13) %
  Geometric Mean Group Live Tick Counts: 3.86
[5]; [25]
  % Efficacy (GM): (98.92) %
  Geometric Mean Group Live Tick Counts: 0.12
[5]; [26]
  % Efficacy (GM): (99.10) %
  Geometric Mean Group Live Tick Counts: 0.26
[5]; [27]
  % Efficacy (GM): (97.55) %
  Geometric Mean Group Live Tick Counts: 0.44
[5]; [28]
  % Efficacy (GM): (95.94) %
  Geometric Mean Group Live Tick Counts: 0.51
[5]; Day 3, treatments 30, 20 and 10 mg/kg
  Therapeutic (knockdown) efficacy: 73-85%
[5]; through Day 21, all treatments (30, 20, 10 mg/kg)
  Residual efficacy against R. sanguineus: > 95%
[5]; through Day 30, 30 mg/kg dose
  Residual efficacy against R. sanguineus: > 95%
[6]; [29]
  residual efficacy against ticks: > 90%
[6]; Day 3, Tick
  % Efficacy (GM): (87.42) %
  Geometric Mean Group Live Parasite Counts: 3.95
[6]; Week 1, Tick
  % Efficacy (GM): (99.44) %
  Geometric Mean Group Live Parasite Counts: 0.19
[6]; Week 2, Tick
  % Efficacy (GM): (100) %
  Geometric Mean Group Live Parasite Counts: 0.00
[6]; Week 3, Tick
  % Efficacy (GM): (100) %
  Geometric Mean Group Live Parasite Counts: 0.00
[6]; Week 4, Tick
  % Efficacy (GM): (100) %
  Geometric Mean Group Live Parasite Counts: 0.00
[7]; [29]
  residual efficacy against fleas: > 90%
[7]; Week 2, Flea
  % Efficacy (GM): (91.73) %
  Geometric Mean Group Live Parasite Counts: 7.15
[7]; Week 3, Flea
  % Efficacy (GM): (91.64) %
  Geometric Mean Group Live Parasite Counts: 7.21
